A value given as a limit tells only on which side of the number the result lay.

Test [1] deals with Prostaglandin G/H synthase 1 (Homo sapiens, UniProt P23219). The test can be described thus: Inhibition of COX1 by microplate reader.
Test [2] concerns the target T1, Prostaglandin G/H synthase 2 (Homo sapiens, UniProt P35354).
T1 sequence (P35354 whole entry): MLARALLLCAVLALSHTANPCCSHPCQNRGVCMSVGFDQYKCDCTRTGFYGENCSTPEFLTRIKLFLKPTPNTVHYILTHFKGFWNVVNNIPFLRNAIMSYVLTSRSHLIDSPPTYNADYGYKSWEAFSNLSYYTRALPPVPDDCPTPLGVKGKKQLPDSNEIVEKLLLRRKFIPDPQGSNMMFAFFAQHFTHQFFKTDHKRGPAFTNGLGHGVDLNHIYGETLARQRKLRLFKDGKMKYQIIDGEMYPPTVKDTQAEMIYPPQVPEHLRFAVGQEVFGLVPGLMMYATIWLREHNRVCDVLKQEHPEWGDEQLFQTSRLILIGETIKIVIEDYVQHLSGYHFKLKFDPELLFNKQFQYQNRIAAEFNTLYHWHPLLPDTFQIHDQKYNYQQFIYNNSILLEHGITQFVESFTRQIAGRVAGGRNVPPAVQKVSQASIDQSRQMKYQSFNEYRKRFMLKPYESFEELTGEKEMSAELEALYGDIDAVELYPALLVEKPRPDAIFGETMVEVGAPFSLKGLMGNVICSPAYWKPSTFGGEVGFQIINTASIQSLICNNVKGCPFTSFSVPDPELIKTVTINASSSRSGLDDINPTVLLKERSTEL
The test is described as follows: Inhibition of COX2 by microplate reader.

Chain of Prostaglandin G/H synthase 1 (P23219 whole entry): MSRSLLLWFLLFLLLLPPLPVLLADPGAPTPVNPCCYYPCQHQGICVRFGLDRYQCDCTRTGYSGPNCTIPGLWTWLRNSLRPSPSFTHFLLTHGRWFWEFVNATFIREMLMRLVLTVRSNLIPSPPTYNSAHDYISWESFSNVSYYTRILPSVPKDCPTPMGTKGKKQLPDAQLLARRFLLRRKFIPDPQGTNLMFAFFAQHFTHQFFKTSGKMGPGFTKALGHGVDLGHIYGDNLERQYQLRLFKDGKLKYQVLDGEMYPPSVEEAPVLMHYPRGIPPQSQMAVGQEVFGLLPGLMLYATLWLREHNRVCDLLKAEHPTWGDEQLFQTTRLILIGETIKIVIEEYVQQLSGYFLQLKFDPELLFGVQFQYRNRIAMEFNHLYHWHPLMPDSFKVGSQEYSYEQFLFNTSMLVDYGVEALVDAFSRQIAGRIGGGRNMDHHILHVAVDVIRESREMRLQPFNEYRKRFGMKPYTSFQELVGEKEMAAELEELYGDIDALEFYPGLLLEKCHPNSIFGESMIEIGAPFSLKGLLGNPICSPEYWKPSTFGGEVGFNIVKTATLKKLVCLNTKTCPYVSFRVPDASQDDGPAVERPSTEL

For the molecule `C[C@@H]1O[C@@H](O[C@H]2[C@H](O)[C@@H](O)[C@H](OC[C@H]3O[C@@H](OC(=O)[C@]45CCC(C)(C)C[C@H]4C4=CC[C@@H]6[C@@]7(C)CC[C@H](O[C@@H]8OC[C@H](O)[C@H](O)[C@H]8O[C@@H]8O[C@@H](C)[C@H](O)[C@@H](O[C@@H]9OC[C@@H](O[C@@H]%10O[C@H](CO)[C@@H](O[C@@H]%11O[C@H](CO)[C@@H](O)[C@H](O)[C@H]%11O)[C@H](O)[C@H]%10O)[C@@H](O)[C@H]9O)[C@H]8O)[C@@](C)(CO)[C@@H]7CC[C@@]6(C)[C@]4(C)CC5)[C@H](O)[C@@H](O)[C@@H]3O)O[C@@H]2CO)[C@H](O)[C@H](O)[C@H]1O`, the IC50 in test [1] and in test [2] was > 50 µM each time.
As to `C[C@@H]1O[C@@H](O[C@H]2[C@H](O)[C@@H](O)[C@H](OC[C@H]3O[C@@H](OC(=O)[C@]45CCC(C)(C)C[C@H]4C4=CC[C@@H]6[C@@]7(C)CC[C@H](O[C@@H]8OC[C@H](O)[C@H](O)[C@H]8O)[C@@](C)(CO)[C@@H]7CC[C@@]6(C)[C@]4(C)CC5)[C@H](O)[C@@H](O)[C@@H]3O)O[C@@H]2CO)[C@H](O)[C@H](O)[C@H]1O` [CAULOSIDE D], the IC50 in test [1] and in test [2] was > 50 µM each time.
For the molecule `C[C@@H]1O[C@@H](O[C@H]2[C@H](O)[C@@H](O)[C@H](OC[C@H]3O[C@@H](OC(=O)[C@]45CCC(C)(C)C[C@H]4C4=CC[C@@H]6[C@@]7(C)CC[C@H](O)C(C)(C)[C@@H]7CC[C@@]6(C)[C@]4(C)CC5)[C@H](O)[C@@H](O)[C@@H]3O)O[C@@H]2CO)[C@H](O)[C@H](O)[C@H]1O` [CIRENSENOSIDE O], the IC50 in test [1] and in test [2] was > 50 µM each time.
With `C[C@@H]1O[C@@H](O[C@H]2[C@H](O)[C@@H](O)[C@H](OC[C@H]3O[C@@H](OC(=O)[C@]45CCC(C)(C)C[C@H]4C4=CC[C@@H]6[C@@]7(C)CC[C@H](O[C@@H]8OC[C@H](O)[C@H](O)[C@H]8O)C(C)(C)[C@@H]7CC[C@@]6(C)[C@]4(C)CC5)[C@H](O)[C@@H](O)[C@@H]3O)O[C@@H]2CO)[C@H](O)[C@H](O)[C@H]1O` [CIWUJIANOSIDE C3], the IC50 in test [1] and in test [2] was > 50 µM in each case.
Regarding `COc1ccc(/C=C/C(=O)O[C@@H]2[C@@H](O)[C@H](O[C@H]3[C@H](O)[C@@H](O)[C@H](O[C@@H]4CO[C@@H](O[C@@H]5[C@@H](O)[C@H](C)O[C@@H](O[C@H]6[C@H](O[C@H]7CC[C@]8(C)[C@H]9CC=C%10[C@@H]%11CC(C)(C)CC[C@]%11(C(=O)O[C@@H]%11O[C@H](CO[C@@H]%12O[C@H](CO)[C@@H](O[C@@H]%13O[C@@H](C)[C@H](O)[C@@H](O)[C@H]%13O)[C@H](O)[C@H]%12O)[C@@H](O)[C@H](O)[C@H]%11O)CC[C@@]%10(C)[C@]9(C)CC[C@H]8C7(C)C)OC[C@H](O)[C@@H]6O)[C@@H]5O)[C@H](O)[C@@H]4O)O[C@@H]3CO)O[C@H](CO)[C@H]2O)cc1O` [CLEMATERNOSIDE B], the IC50 was determined as 8 µM in test [1] and 7.6 µM in test [2].
As for `COc1ccc(/C=C/C(=O)O[C@H]2[C@H](O[C@H]3[C@H](O)[C@@H](O)[C@H](O[C@@H]4CO[C@@H](O[C@@H]5[C@@H](O)[C@H](C)O[C@@H](O[C@H]6[C@H](O[C@H]7CC[C@]8(C)[C@H]9CC=C%10[C@@H]%11CC(C)(C)CC[C@]%11(C(=O)O[C@@H]%11O[C@H](CO[C@@H]%12O[C@H](CO)[C@@H](O[C@@H]%13O[C@@H](C)[C@H](O)[C@@H](O)[C@H]%13O)[C@H](O)[C@H]%12O)[C@@H](O)[C@H](O)[C@H]%11O)CC[C@@]%10(C)[C@]9(C)CC[C@H]8C7(C)C)OC[C@H](O)[C@@H]6O)[C@@H]5O)[C@H](O)[C@@H]4O)O[C@@H]3CO)O[C@H](CO)[C@@H](O)[C@@H]2O)cc1O` [CLEMATERNOSIDE C], the IC50 in test [1] was 7.6 µM; in test [2], 8.8 µM.
For the molecule `COc1ccc(/C=C/C(=O)O[C@H]2[C@H](O[C@H]3[C@H](O)[C@@H](O)[C@H](O[C@@H]4CO[C@@H](O[C@@H]5[C@@H](O)[C@H](C)O[C@@H](O[C@H]6[C@H](O[C@H]7CC[C@@]8(C)[C@@H](CC[C@]9(C)[C@@H]8CC=C8[C@@H]%10CC(C)(C)CC[C@]%10(C(=O)O[C@@H]%10O[C@H](CO[C@@H]%11O[C@H](CO)[C@@H](O[C@@H]%12O[C@@H](C)[C@H](O)[C@@H](O)[C@H]%12O)[C@H](O)[C@H]%11O)[C@@H](O)[C@H](O)[C@H]%10O)CC[C@]89C)[C@]7(C)CO)OC[C@H](O)[C@@H]6O)[C@@H]5O)[C@H](O)[C@@H]4O)O[C@@H]3CO)O[C@H](CO)[C@@H](O)[C@@H]2O[C@@H]2O[C@H](CO[C@@H]3O[C@@H](C)[C@H](O)[C@@H](O)[C@H]3O)[C@@H](O)[C@H](O)[C@H]2O)cc1O` [CLEMATERNOSIDE D], the IC50 in test [1] amounted to 8.8 µM; in test [2], 9 µM.
The matching figures for `COc1ccc(/C=C/C(=O)O[C@H]2[C@H](O[C@H]3[C@H](O)[C@@H](O)[C@H](O[C@@H]4CO[C@@H](O[C@@H]5[C@@H](O)[C@H](C)O[C@@H](O[C@H]6[C@H](O[C@H]7CC[C@]8(C)[C@H]9CC=C%10[C@@H]%11CC(C)(C)CC[C@]%11(C(=O)O[C@@H]%11O[C@H](CO[C@@H]%12O[C@H](CO)[C@@H](O[C@@H]%13O[C@@H](C)[C@H](O)[C@@H](O)[C@H]%13O)[C@H](O)[C@H]%12O)[C@@H](O)[C@H](O)[C@H]%11O)CC[C@@]%10(C)[C@]9(C)CC[C@H]8C7(C)C)OC[C@H](O)[C@@H]6O)[C@@H]5O)[C@H](O)[C@@H]4O)O[C@@H]3CO)O[C@H](CO)[C@@H](O)[C@@H]2O[C@@H]2O[C@H](CO[C@@H]3O[C@@H](C)[C@H](O)[C@@H](O)[C@H]3O)[C@@H](O)[C@H](O)[C@H]2O)cc1O` [CLEMATERNOSIDE E]: 8.3 µM and 8.5 µM.
With `COc1ccc(/C=C/C(=O)O[C@H]2[C@H](O[C@H]3[C@H](O)[C@@H](O)[C@H](O[C@@H]4CO[C@@H](O[C@@H]5[C@@H](O)[C@H](C)O[C@@H](O[C@H]6[C@H](O[C@H]7CC[C@]8(C)[C@H]9CC=C%10[C@@H]%11CC(C)(C)CC[C@]%11(C(=O)O[C@@H]%11O[C@H](CO[C@@H]%12O[C@H](CO)[C@@H](O[C@@H]%13O[C@@H](C)[C@H](O)[C@@H](O)[C@H]%13O)[C@H](O)[C@H]%12O)[C@@H](O)[C@H](O)[C@H]%11O)CC[C@@]%10(C)[C@]9(C)CC[C@H]8C7(C)C)OC[C@H](O)[C@@H]6O)[C@@H]5O)[C@H](O)[C@@H]4O)O[C@@H]3CO)O[C@H](CO)[C@@H](O)[C@@H]2O[C@@H]2O[C@H](CO[C@@H]3O[C@@H](C)[C@H](O)[C@@H](O)[C@H]3O[C@@H]3O[C@H](CO)[C@@H](O)[C@H](O)[C@H]3O)[C@@H](O)[C@H](O)[C@H]2O)cc1O` [CLEMATERNOSIDE K], the values for the IC50 in test [1] and in test [2] were 5.9 µM and 6.7 µM, respectively.
As for `C[C@@H]1O[C@@H](O[C@H]2[C@H](O)[C@@H](O)[C@H](OC[C@H]3O[C@@H](OC(=O)[C@]45CCC(C)(C)C[C@H]4C4=CC[C@@H]6[C@@]7(C)CC[C@H](O[C@@H]8OC[C@H](O)[C@H](O)[C@H]8O[C@@H]8O[C@@H](C)[C@H](O)[C@@H](O[C@@H]9OC[C@@H](O[C@@H]%10O[C@H](CO)[C@@H](O)[C@H](O)[C@H]%10O)[C@@H](O)[C@H]9O)[C@H]8O)[C@@](C)(CO)[C@@H]7CC[C@@]6(C)[C@]4(C)CC5)[C@H](O)[C@@H](O)[C@@H]3O)O[C@@H]2CO)[C@H](O)[C@H](O)[C@H]1O` [CLEMATICHINENOSIDE B], the IC50 in test [1] and in test [2] was > 50 µM in each case.
Take `C[C@@H]1O[C@@H](O[C@H]2[C@H](O)[C@@H](O)[C@H](OC[C@H]3O[C@@H](OC(=O)[C@]45CCC(C)(C)C[C@H]4C4=CC[C@@H]6[C@@]7(C)CC[C@H](O[C@@H]8OC[C@H](O)[C@H](O)[C@H]8O[C@@H]8O[C@@H](C)[C@H](O)[C@@H](O[C@@H]9OC[C@@H](O[C@@H]%10O[C@H](CO)[C@@H](O)[C@H](O)[C@H]%10O)[C@@H](O)[C@H]9O)[C@H]8O)C(C)(C)[C@@H]7CC[C@@]6(C)[C@]4(C)CC5)[C@H](O)[C@@H](O)[C@@H]3O)O[C@@H]2CO)[C@H](O)[C@H](O)[C@H]1O` [CLEMATICHINENOSIDE C]: the concentration for half-maximal inhibition (IC50) in test [1] and in test [2] was > 50 µM in each case.
For `COc1ccc(/C=C/C(=O)O[C@H]2[C@H](O[C@H]3[C@H](O)[C@@H](O)[C@H](O[C@@H]4CO[C@@H](O[C@@H]5[C@@H](O)[C@H](C)O[C@@H](O[C@H]6[C@H](O[C@H]7CC[C@@]8(C)[C@@H](CC[C@]9(C)[C@@H]8CC=C8[C@@H]%10CC(C)(C)CC[C@]%10(C(=O)O[C@@H]%10O[C@H](CO[C@@H]%11O[C@H](CO)[C@@H](O[C@@H]%12O[C@@H](C)[C@H](O)[C@@H](O)[C@H]%12O)[C@H](O)[C@H]%11O)[C@@H](O)[C@H](O)[C@H]%10O)CC[C@]89C)[C@]7(C)CO)OC[C@@H](O)[C@@H]6O)[C@@H]5O)[C@H](O)[C@@H]4O)O[C@@H]3CO)O[C@H](CO)[C@@H](O)[C@@H]2O[C@@H]2O[C@H](CO[C@@H]3O[C@@H](C)[C@H](O)[C@@H](O)[C@H]3O[C@@H]3O[C@H](CO)[C@@H](O)[C@H](O)[C@H]3O)[C@@H](O)[C@H](O)[C@H]2O)cc1O` [CLEMATOCHINENOSIDE A], the IC50 in test [1] came out at 7.8 µM; in test [2], 6.7 µM.
